From patent US10729636B2, “Compositions comprising peptide [sequence]” (NURITAS LIMITED, priority 2016, dated 2020)

What was measured:
Human skeletal myoblasts = test: Glucose uptake (2-DG), skeletal myoblasts; assay type: cell-based; settings: 3 h, compared with untreated control
Protocol: Glucose uptake in skeletal muscle cells was measured using 2-deoxyglucose (2-DG). 2-DG is taken up by glucose transporters and metabolized to 2-DG-6-phosphate (2-DG6P). The amount of accumulated non-metabolized 2-DG6P is proportional to glucose uptake by cells.
Human skeletal myoblasts (Sigma 150-05a) were seeded in a 96 well plate at 10,000 cells per well in Skeletal Muscle Differentiation medium and allowed to differentiated for 72 h prior to experimentation.
The differentiated cells were serum starved for 24 h prior to stimulation with insulin or synthetic peptides. After starvation, the serum free media was removed, cells rinsed with Phosphate Buffered Saline (PBS) and media replaced with 100 μl of Krebs-Ringer-Phosphate-HEPES (KRPH) and incubated for 1 h.
The cells were then stimulated with 100 nM insulin for 30 minutes or 5 μg/ml, 0.5 μg/ml or 0.05 μg/ml synthetic peptide for 3 h respectively.
Following stimulation, the cells were incubated with 10 μl/well of 2-DG solution for 40 min and glucose uptake was measured using the ‘PrismColor Glucose Uptake Assay Kit’ (Molecutools), all steps were carried out according to the manufacturer's instructions. The experiment was repeated using HACAT cells.

GLUT-4 = GLUT-4 translocation (membrane fraction ELISA); assay type: cell-based, Human; settings: HSKMC cells, 2 hrs, FIG. 8
Protocol: […] Upon completion of treatment, cell membrane proteins were collected. Briefly, cells were harvested from the wells with a cell scraper and centrifuged at 300×g for 5 min. The cell pellet was washed with 300 ul of cell wash solution and then re centrifuged at 300×g for 5 min. The supernatant was discarded and the cells resuspended in 1.5 ml of cell wash solution and transferred to a 2 ml centrifuge tube. The cells were then centrifuged at 300×g for 5 min and the supernatant discarded. 150 ul of permeabilization buffer was added to the cell pellet and vortexed briefly to obtain a homogenous cell suspension. The suspension was then incubated at 4° C. for 10 min with constant mixing. […] The supernatant containing solubilized membrane and membrane associated proteins fractions was transferred to a new tube and stored at −80° C. until ready for assessment.
GLUT-4 was assessed in the cell membrane fractions using a sandwich ELISA from LSBio. […] 50 ul of stop solution was added to each well and the optical density of the sample was determined using a microplate reader set to 450 nm. GLUT-4 concentration in the samples was calculated off the standard curve after generating a four-parameter logistic (4-PL) curve fit. Sample concentration read of the curve was then adjusted by multiplying the results by the dilution factor.

WKDEAGKPLVK [SEQ ID NO. 1]
increase: glucose uptake (Human skeletal myoblasts; 0.5 μg/ml, FIG. 6) | glucose uptake (Human skeletal myoblasts; 5 μg/ml, FIG. 7) | GLUT4 translocation (GLUT-4; 0.05 ug/ml) | GLUT4 translocation (GLUT-4; 5 ug/ml)
